How the values were obtained:
Wee1-like protein kinase = Wee1-like protein kinase (Homo sapiens, UniProt P30291); assay: Inhibition of human Wee1 (215 to 647 residues) using polyornithine/tyrosine (4:1) as substrate incubated for 5 mins in presence of ATP by micro beta plate reader analysis
A-427 = assay: Antiproliferative activity against human A-427 cells assessed as inhibition of cell growth incubated for 72 hrs by CCK-8 assay; type: functional, cell-based; conditions: A-427, 72 h
[1] = Metabolic stability in human liver microsome assessed as parent compound remaining measured at 60 mins by LCMS/MS analysis; type: ADME; conditions: liver microsomes, read-out: Stability
[2] = Metabolic stability in mouse liver microsome assessed as parent compound remaining measured at 60 mins by LCMS/MS analysis; type: ADME; conditions: liver microsomes, read-out: Stability
[3] = Clearance in ICR mouse at 1 mg/kg, iv measured upto 24 hrs by LC-MS/MS analysis; type: ADME, organism-based; conditions: in vivo
[4] = Half life in ICR mouse at 60 mg/kg, IG measured upto 24 hrs by LC-MS/MS analysis; type: ADME, organism-based; conditions: in vivo, po
[5] = AUC (0 to 24 hrs) in ICR mouse at 60 mg/kg, IG measured upto 24 hrs by LC-MS/MS analysis; type: ADME, organism-based; conditions: in vivo, po
[6] = Half life in ICR mouse at 1 mg/kg, iv measured upto 24 hrs by LC-MS/MS analysis; type: ADME, organism-based; conditions: in vivo
[7] = AUC (0 to 24 hrs) in ICR mouse at 1 mg/kg, iv measured upto 24 hrs by LC-MS/MS analysis; type: ADME, organism-based; conditions: in vivo
[8] = Volume of distribution in ICR mouse at 1 mg/kg, iv measured upto 24 hrs by LC-MS/MS analysis; type: ADME, organism-based; conditions: in vivo
[9] = Bioavailability in ICR mouse at 60 mg/kg, IG measured upto 24 hrs by LC-MS/MS analysis; type: ADME, organism-based; conditions: in vivo, po

Chain of Wee1-like protein kinase (P30291 whole entry, the tested form may be a part): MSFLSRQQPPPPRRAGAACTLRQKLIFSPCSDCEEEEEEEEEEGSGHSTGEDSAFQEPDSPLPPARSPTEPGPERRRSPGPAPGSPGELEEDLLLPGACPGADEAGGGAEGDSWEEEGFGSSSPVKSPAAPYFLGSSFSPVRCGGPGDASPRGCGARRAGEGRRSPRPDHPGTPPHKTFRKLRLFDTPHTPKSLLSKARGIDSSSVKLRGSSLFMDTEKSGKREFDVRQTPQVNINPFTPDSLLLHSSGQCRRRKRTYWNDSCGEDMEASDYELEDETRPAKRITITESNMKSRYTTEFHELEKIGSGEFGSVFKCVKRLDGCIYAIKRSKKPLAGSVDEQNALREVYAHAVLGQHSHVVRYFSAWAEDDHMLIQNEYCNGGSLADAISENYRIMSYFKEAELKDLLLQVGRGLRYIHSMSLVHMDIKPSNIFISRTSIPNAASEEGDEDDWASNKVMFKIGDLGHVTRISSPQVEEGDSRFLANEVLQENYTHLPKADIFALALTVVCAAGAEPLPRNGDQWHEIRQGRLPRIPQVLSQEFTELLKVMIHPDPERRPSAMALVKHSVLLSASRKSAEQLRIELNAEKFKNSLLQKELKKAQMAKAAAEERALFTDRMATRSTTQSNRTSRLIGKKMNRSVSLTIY

Row | Compound | IC50 (Wee1-like protein kinase) [nM] | IC50 (A-427) [nM] | remaining at 1 h [1] [%] | remaining at 1 h [2] [%] | further results
1 | C=CCn1c(=O)c2cnc(Nc3ccc(N4CCN(C)CC4)cc3)nc2n1-c1cccc(-n2ccc(C)n2)n1 | 4.1 | 898 | – | – | –
2 | C=CCn1c(=O)c2cnc(Nc3ccc(N4CCN(C)CC4)cc3)nc2n1-c1cccc(-c2ncc(F)cn2)n1 | 3.2 | 454 | 49.8 | 48.2 | –
3 | C=CCn1c(=O)c2cnc(Nc3ccc(N4CCN(CCO)CC4)cc3)nc2n1-c1cccc(-c2cnccn2)n1 | 2.9 | 105 | 71.2 | 56 | clearance [3]: 218 mL/min/kg; half-life [4]: 4.68 h; AUC(0-t) at 24 h [5]: 2440 ng·h/mL; half-life [6]: 1.3 h; AUC(0-t) at 24 h [7]: 74.3 ng·h/mL; Vd [8]: 17 L/kg; bioavailability [9]: 54.9%
4 | C=CCn1c(=O)c2cnc(Nc3ccc(N4CCN(C)CC4)cc3)nc2n1-c1cccc(-n2cc(C)cn2)n1 | 3.7 | 221 | 6.06 | 11.2 | –
5 | C=CCn1c(=O)c2cnc(Nc3ccc(N4CCN(CCN(C)C)CC4)cc3)nc2n1-c1cccc(-c2ncccn2)n1 | 3.1 | 556 | 106 | 94.7 | –
6 | C=CCn1c(=O)c2cnc(Nc3ccc(N4CCN(C)CC4)cc3)nc2n1-c1cc(-c2cnccn2)ccn1 | 12.6 | 3510 | – | – | –
7 | C=CCn1c(=O)c2cnc(Nc3ccc(N4C[C@H]5C[C@@H]4CN5C)cc3)nc2n1-c1cccc(-c2cnccn2)n1 | 2.3 | 226 | 73.5 | 40.5 | –
8 | C=CCn1c(=O)c2cnc(Nc3ccc(N4CCN(C)CC4)cc3)nc2n1-c1ccc2ccccc2n1 | 2.2 | 949 | – | – | –
9 | C=CCn1c(=O)c2cnc(Nc3ccc(N4CCN(C)CC4)c(OC)c3)nc2n1-c1cccc(-c2cccnn2)n1 | 2.5 | 231 | 34.8 | 53.1 | –
10 | C=CCn1c(=O)c2cnc(Nc3ccc(N4CCN(C)CC4)cc3)nc2n1-c1cccc(-n2cccn2)n1 | 2.4 | 252 | 18 | 8.82 | –
11 | C=CCn1c(=O)c2cnc(Nc3ccc(N4CCN(C)CC4)cc3)nc2n1-c1ccc2ncn(C(C)C)c2c1 | 2.1 | 310 | – | – | –
12 | C=CCn1c(=O)c2cnc(Nc3ccc(N4CCN(C)CC4)cc3)nc2n1-c1cccc(-c2cnc(Cl)cn2)n1 | 2.2 | 434 | – | – | –
13 | C=CCn1c(=O)c2cnc(Nc3ccc(N4CCN(C)CC4)cc3)nc2n1-c1cccc(-n2cnc(C)c2)n1 | 3.8 | 347 | 7.35 | 18.6 | –
14 | C=CCn1c(=O)c2cnc(Nc3ccc(N4CCN(C)CC4)cc3)nc2n1-c1cccc(-c2cc(F)ccn2)n1 | 2.4 | 240 | 30.7 | 13.4 | –
15 | C=CCn1c(=O)c2cnc(Nc3ccc(N4C[C@@H](C)N[C@@H](C)C4)cc3)nc2n1-c1cccc(-c2cnccn2)n1 | 1.7 | 232 | 44.1 | 17.8 | –
16 | C=CCn1c(=O)c2cnc(Nc3ccc(N4CCN(C)CC4)cc3)nc2n1-c1cccc(-c2ncc(C#N)cn2)n1 | 2.4 | 342 | – | – | –
17 | CC(C)n1c(=O)c2cnc(Nc3ccc(N4CCN(C)CC4)cc3)nc2n1-c1cccc(-c2cnccn2)n1 | 3.4 | 1410 | – | – | –
18 | C=CCn1c(=O)c2cnc(Nc3ccc4c(c3)CNCC4)nc2n1-c1cccc(-c2ncccn2)n1 | 1.4 | 283 | 81 | 65.8 | –

Row | Compound | IC50 (Wee1-like protein kinase) [nM] | IC50 (A-427) [nM] | remaining at 1 h [1] [%] | remaining at 1 h [2] [%] | further results
19 | C=CCn1c(=O)c2cnc(Nc3ccc(N4C5CCC4CN(C)C5)cc3)nc2n1-c1cccc(-c2cnccn2)n1 | 2 | 603 | – | – | –
20 | C=CCn1c(=O)c2cnc(Nc3ccc(N4CCN(C)CC4)cc3)nc2n1-c1cccc(-c2cnn(C)c2)n1 | 2.6 | 616 | – | – | –
21 | C=CCn1c(=O)c2cnc(Nc3ccc(N4CCN(C)CC4)cc3)nc2n1-c1cccc(-c2ccc(F)cn2)n1 | 1.8 | 327 | 29.7 | 18.1 | –
22 | C=CCn1c(=O)c2cnc(Nc3ccc(N4CCN(C)CC4)cc3)nc2n1-c1cncc(-c2cnccn2)c1 | 13.4 | 4180 | – | – | –
23 | C=CCn1c(=O)c2cnc(Nc3ccc(N4C5CCC4CN(C)C5)cc3)nc2n1-c1cccc(-c2cccnn2)n1 | 3 | 226 | 28.6 | 23.8 | –
24 | C=CCn1c(=O)c2cnc(Nc3ccc(C4CCN(C)CC4)cc3)nc2n1-c1cccc(-c2cccnn2)n1 | 1.8 | 156 | 67 | 44.7 | –
25 | C=CCn1c(=O)c2cnc(Nc3ccc(N4CCN(CCN(C)C)CC4)cc3)nc2n1-c1cccc(-c2cnccn2)n1 | 3.1 | 238 | 67.2 | 56.9 | –
26 | C=CCn1c(=O)c2cnc(Nc3ccc4c(c3)CN(C)CC4)nc2n1-c1cccc(-c2cccnn2)n1 | 2.3 | 245 | 42.2 | 39.4 | –
27 | C=CCn1c(=O)c2cnc(Nc3ccc(N4CCN(C)CC4)cc3)nc2n1-c1cccc(-c2cnn(C(F)F)c2)n1 | 2.5 | 372 | – | – | –
28 | C=CCn1c(=O)c2cnc(Nc3ccc(N4CCN(C)CC4)cc3)nc2n1-c1ccc2cnn(C(C)C)c2c1 | 2.4 | 315 | – | – | –
29 | C=CCn1c(=O)c2cnc(Nc3ccc(N4CCN(C)CC4)cc3)nc2n1-c1cccc(-n2cc(F)cn2)n1 | 4.5 | 329 | 3.89 | 15.9 | –
30 | C=CCn1c(=O)c2cnc(Nc3ccc(N4CCN(C)CC4)cc3)nc2n1-c1cccc(-n2nc(C)cc2C)n1 | 2.2 | 955 | – | – | –
31 | COCCn1c(=O)c2cnc(Nc3ccc(N4CCN(C)CC4)cc3)nc2n1-c1cccc(-c2cnccn2)n1 | 16 | 512 | – | – | –
32 | CN1CCN(c2ccc(Nc3ncc4c(=O)n(CC5CC5)n(-c5cccc(-c6cnccn6)n5)c4n3)cc2)CC1 | 33 | 1870 | – | – | –
33 | C=CCn1c(=O)c2cnc(Nc3ccc(N4C[C@@H](C)N[C@@H](C)C4)cc3)nc2n1-c1cccc(-c2cccnn2)n1 | 2.1 | 240 | 74.1 | 87.1 | clearance [3]: 178 mL/min/kg; AUC(0-t) at 24 h [5]: 20.8 ng·h/mL; half-life [6]: 1.56 h; AUC(0-t) at 24 h [7]: 86.7 ng·h/mL; Vd [8]: 20.3 L/kg; bioavailability [9]: 0.4%
34 | C=CCn1c(=O)c2cnc(Nc3ccc(N4CCNCC4)cc3)nc2n1-c1cccc(-c2ncccn2)n1 | 0.89 | 320 | 90.9 | 99.1 | clearance [3]: 82 mL/min/kg; AUC(0-t) at 24 h [5]: 235 ng·h/mL; half-life [6]: 1.24 h; AUC(0-t) at 24 h [7]: 199 ng·h/mL; Vd [8]: 5.66 L/kg; bioavailability [9]: 1.96%
35 | C=CCCn1c(=O)c2cnc(Nc3ccc(N4CCN(C)CC4)cc3)nc2n1-c1cccc(-c2cnccn2)n1 | 9.4 | 1050 | – | – | –
36 | C=CCn1c(=O)c2cnc(Nc3ccc(N4CCN(C)CC4)cc3)nc2n1-c1cccc(-c2cccc(F)n2)n1 | 2.2 | 280 | 32.5 | 18.4 | –

From ChEMBL document CHEMBL5512688 (J Med Chem, 2024)
